Assay results reported in US5229116A, “Administration of pharmaceutical agents” (priority 1989, dated 1993).

Experiment: In vivo pharmacokinetic studies of dihydropyridines given orally with water, grapefruit juice or orange juice (plasma concentration, GC analysis)
Parameters: species or system human (healthy subjects, hypertensive patients)
Details: human, po, mean; for AUC(0-inf): zero to infinity
Experimental: Hypertensive patients and healthy volunteers were given commercially available formulations of dihydropyridines in the morning after an overnight fast. The tablets were taken either with water, orange juice, or, as a source of flavonoids, 200 ml grapefruit juice. This contains about 150 mg of flavonoids, either as aglycones or glycosides.
The protocols for the five studies are shown on Table 2.
Blood samples for the analysis of the dihydropyridine and the first metabolite were drawn before and at frequent intervals after dose via an indwelling antecubital cannula. Samples were centrifuged and the plasma frozen (-20° C.) until analysis.
The maximum plasma concentration, Cmax, and the corresponding time to reach peak concentration, tmax, were recorded from the individual plasma concentration time curves of the dihydropyridine and its first metabolite. The area from zero to infinity was calculated adding the residual area to the area from zero to last determinable plasma concentration value by using the slope of the log plasma concentration time curve in the 3 to 8 hour interval after dose.

[1] = plasma, felodipine ER tablets, healthy subjects, n = 9, grapefruit juice
[2] = plasma, felodipine ER tablets, healthy subjects, n = 9, water
[3] = plasma, felodipine plain tablets, healthy subjects, n = 9, grapefruit juice
[4] = plasma, felodipine plain tablets, healthy subjects, n = 9, water
[5] = plasma, felodipine plain tablets, patients, n = 6, grapefruit juice
[6] = plasma, felodipine plain tablets, patients, n = 6, orange juice
[7] = plasma, felodipine plain tablets, patients, n = 6, water
[8] = plasma, 10 mg, nitrendipine 10 mg tablets, healthy subjects, n = 3, grapefruit juice
[9] = plasma, 10 mg, nitrendipine 10 mg tablets, healthy subjects, n = 3, water

CCOC(=O)C1=C(C)NC(C)=C(C(=O)OC)C1c1cccc(Cl)c1Cl (stereo not drawn) [Felodipine]
Cmax [1]: 8.9 ± 3.3 nM
Tmax [1]: 3.2 ± 0.8 h
AUC(0-inf) [1]: 0.0478 ± 0.0157 µM·h
Cmax [2]: 3.4 ± 1.6 nM
Tmax [2]: 3.4 ± 0.9 h
AUC(0-inf) [2]: 0.0274 ± 0.0123 µM·h
Cmax [3]: 16.3 ± 7.1 nM
Tmax [3]: 2.1 ± 0.9 h
AUC(0-inf) [3]: 0.065 ± 0.0263 µM·h
Cmax [4]: 6.6 ± 3.6 nM
Tmax [4]: 1.3 ± 0.6 h
AUC(0-inf) [4]: 0.0228 ± 0.0106 µM·h
Cmax [5]: 28.7 ± 7.6 nM
Tmax [5]: 2.1 ± 0.5 h
AUC(0-inf) [5]: 0.121 ± 0.045 µM·h
Cmax [6]: 16.4 ± 7.8 nM
Tmax [6]: 1.9 ± 0.1 h
AUC(0-inf) [6]: 0.0514 ± 0.0222 µM·h
Cmax [7]: 13.2 ± 5 nM
Tmax [7]: 1.1 ± 0.5 h
AUC(0-inf) [7]: 0.0484 ± 0.0237 µM·h

CCOC(=O)C1=C(C)NC(C)=C(C(=O)OC)C1c1cccc([N+](=O)[O-])c1 (stereo not drawn) [Nitrendipine]
Tmax (in vivo, 10 mg, nitrendipine 10 mg tablets, healthy subjects, n = 3, grapefruit juice): 1.3 ± 0.5 h
Tmax (in vivo, 10 mg, nitrendipine 10 mg tablets, healthy subjects, n = 3, water): 1.5 h
Cmax [8]: 8.9 ± 4.8 nM
AUC(0-inf) [8]: 0.035 ± 0.0195 µM·h
Cmax [9]: 3.7 ± 1.8 nM
AUC(0-inf) [9]: 0.0151 ± 0.0058 µM·h
